In ChEMBL document CHEMBL2157899 (Bioorg Med Chem, 2012):
Non-standard residues stand in square brackets, D forms with d. Residues, ends and D or L forms follow the SMILES beside them. ξ: configuration not given here. ξGly(octyl) = CCCCCCCCC(N)C(=O)O

Legend:
[1] = target: Delta-type opioid receptor (Homo sapiens, UniProt P41143); test: Displacement of [3H]DPDPE from DOP receptor expressed in CHO-K1 cells after overnight incubation by beta counting method; assay type: cell-based
[2] = Half life in human Caco2 cell homogenate at 200 uM by LC/MS analysis; assay type: ADME, Colon; settings: Caco-2 cell homogenate
Mu-type opioid receptor [3] = target: T1, Mu-type opioid receptor (Homo sapiens, UniProt P35372); test: Displacement of [3H]DAMGO from MOP receptor expressed in CHO-K1 cells after overnight incubation by beta counting method; assay type: cell-based
Mu-type opioid receptor [4] = target: T1, Mu-type opioid receptor; test: Agonist activity at MOP receptor expressed in CHO-K1 cells assessed as inhibition of forskolin-stimulated cAMP accumulation after 30 mins; assay type: functional, cell-based
in vitro = settings: human, Caco-2
Description: Apparent permeability across human Caco2 cells st 200 uM measured over 150 mins by LC/MS analysis

CHO-K1 = test: Selectivity ratio of Ki for DOP receptor expressed in CHO-K1 cells to Ki for MOP receptor expressed in CHO-K1 cells; assay type: cell-based

T1 sequence (P35372 whole entry): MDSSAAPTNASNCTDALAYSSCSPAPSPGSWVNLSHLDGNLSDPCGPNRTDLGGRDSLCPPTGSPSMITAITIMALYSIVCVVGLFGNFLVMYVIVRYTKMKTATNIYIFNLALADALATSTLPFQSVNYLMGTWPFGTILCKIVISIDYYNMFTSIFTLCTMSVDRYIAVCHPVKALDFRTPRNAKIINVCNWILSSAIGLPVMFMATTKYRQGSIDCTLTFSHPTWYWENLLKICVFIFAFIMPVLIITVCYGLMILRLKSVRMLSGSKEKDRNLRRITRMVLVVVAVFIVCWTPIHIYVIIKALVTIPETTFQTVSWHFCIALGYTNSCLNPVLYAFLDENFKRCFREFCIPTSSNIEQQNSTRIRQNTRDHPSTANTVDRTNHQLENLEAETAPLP
Sequence of Delta-type opioid receptor (P41143 whole entry): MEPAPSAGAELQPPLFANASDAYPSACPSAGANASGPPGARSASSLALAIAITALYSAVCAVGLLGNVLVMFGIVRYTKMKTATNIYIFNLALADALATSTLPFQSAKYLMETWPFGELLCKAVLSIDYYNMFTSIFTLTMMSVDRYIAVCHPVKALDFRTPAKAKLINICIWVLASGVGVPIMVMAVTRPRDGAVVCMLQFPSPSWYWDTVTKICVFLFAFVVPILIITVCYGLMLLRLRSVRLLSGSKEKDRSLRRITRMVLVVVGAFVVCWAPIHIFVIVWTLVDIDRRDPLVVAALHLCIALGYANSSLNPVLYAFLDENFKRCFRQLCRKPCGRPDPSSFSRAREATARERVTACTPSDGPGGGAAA

Molecule	Ki [1] [nM]	half-life at 200 µM [2] [min]	Ki (Mu-type opioid receptor [3]) [nM]	IC50 (Mu-type opioid receptor [4]) [nM]	inhibition (Mu-type opioid receptor [4])	Papp at 2.5 h, 200 µM (in vitro) [×10⁻⁶ cm/s]	Ratio Ki (CHO-K1)
CCCCCCCCC(N)C(=O)N[C@@H](Cc1ccc(O)cc1)C(=O)N1CCC[C@H]1C(=O)N[C@@H](Cc1c[nH]c2ccccc12)C(=O)N[C@@H](Cc1ccccc1)C(=O)N[C@@H](Cc1ccccc1)C(=O)NCC(=O)N[C@@H](CC(C)C)C(=O)N[C@@H](CCSC)C(N)=O (stereo partly drawn) (H-[ξGly(octyl)]YPWFFGLM-NH2)	1230	75.8	3.87	45	Dose-dependent effect	10.2	318
CCCCCCCCC(N)C(=O)N[C@@H](Cc1ccc(O)cc1)C(=O)N1CCC[C@H]1C(=O)N[C@@H](Cc1c[nH]c2ccccc12)C(=O)N[C@@H](Cc1ccccc1)C(=O)NCC(=O)N[C@@H](CC(C)C)C(=O)N[C@@H](CCSC)C(N)=O (stereo partly drawn) (H-[ξGly(octyl)]YPWFGLM-NH2)	2250	52.5	132			8.08	17
NC(=O)[C@H](Cc1ccccc1)NC(=O)[C@H](Cc1c[nH]c2ccccc12)NC(=O)[C@@H]1CCCN1C(=O)[C@@H](N)Cc1ccc(O)cc1 [ENDOMORPHIN-1]		5.6				1.01	
OC[C@@H](O)[C@@H](O)[C@H](O)[C@H](O)CO [MANNITOL]						0.488	
CC(C)NCC(O)COc1cccc2ccccc12 (stereo not drawn) [PROPRANOLOL]						30.5	
H-YPWFFGLM-NH2	1560	15.6	0.73	12	Dose-dependent effect	2.04	2130
H-YPWFGLM-NH2	1980	10.7	1.6			1.41	1240
